These results are taken from patent US20050009772A1, “Methods and compositions for the treatment of glaucoma and other retinal diseases” (The Regents of the University of California, priority 2003, published 2005).

“Also recorded” adds a separate entry of the source.

Assay [1] deals with HSP72. Briefly: Quantitative immunohistochemical analysis of HSP72 in the RGCL after 1 week of IOP elevation (Experiment 3). In kind it is in vivo, rat. As to conditions: quercetin = co-administered with GGA. The procedure: TdT-mediated biotin-dUTP nick end labeling (TUNEL) and immunohistochemical analysis for HSP72 and HSC70 were performed.
Animals were deeply anesthetized with intramuscular injections of 0.8 ml/kg of a cocktail of 5 ml ketamine (100 mg/ml), 2.5 ml xylazine (20 mg/ml), 1.0 ml acepromazine (10 mg/ml), and 1.5 ml normal saline. Then they were transcardially perfused with 4% paraformaldehyde in 0.1 M phosphate buffer. The enucleated eyeballs were immersed in fixative for 1 hour, bisected and post-fixed overnight. The eyes were embedded in paraffin and sectioned at a four-μm thickness along the vertical meridian through the optic nerve head. After deparaffinization and hydration, a species-specific Vectastain ABC kit (Vector Laboratories, Inc., Burlingame, Calif.) was chosen to match the species of primary antibody and the manufacturer's procedures were followed. The tissue sections were incubated with blocking serum solution in PBS for 1 hour. This was followed by incubation with primary antibody at 4° C overnight. The antibodies were mouse monoclonal antibody against HSP72 (1:500; StressGen Biotechnologies Corp., Victoria, British Columbia, Canada), goat polyclonal antibody against HSP72 (1:1000; Santa Cruz Biotechnology, Inc., Santa Cruz, Calif.) or rat monoclonal antibody against HSC70 (1:200; StressGen). Antigen-antibody complexes were detected by an avidin-biotin-peroxidase technique (Vectastain ABC Kit; Vector Laboratories). Diaminobenzidine (DAB) was used to produce a brown color in the target tissue and the slides were permanently mounted. As a negative control, alternate retinal section was incubated with blocking solution by replacing the primary antibody or with anti-rabbit secondary antibody by replacing the original secondary antibody.
Immunohistochemical staining was analyzed quantitatively with a computer-assisted image processing unit (Image-Pro Plus software, Media Cybernetics, Silver Spring, Md.) and the “count-measure” function. Images of immuno-stained sections were captured with a digital camera (Cool snap, RS Photometric, Tucson, Ariz.) attached to the microscope (Axio plan, Carl Zeiss, Oberkochen, Germany) at 630× magnification under oil immersion. The system was calibrated according to the supplier's manual before the analysis. For each digital image, all individual cells in the RGCL were marked by a masked examiner and the optical density of each cell was measured. The relative intensities of cells in the RGCL were measured and averaged (±SEM) to yield a single value representing one retina.

Assay [2] has as its system TUNEL positive cells in the RGCL. Briefly: TUNEL analysis of RGCL after 1 week of IOP elevation (Experiment 3). The class given is in vivo, rat.
Procedure: Experiment 3 was performed to investigate the inhibition of apoptosis with GGA administration after 1 week of IOP elevation (n=56).
Rats were anesthetized with intramuscular injections of 0.8 ml/kg of the anesthetic cocktail described above. […] At the end of the procedure, Tobrex ophthalmic ointment (tobramycin 0.3%; Alcon, Fort Worth, Tex.) was applied topically. Five days after intracameral injection of India ink, a dark band at the limbus was noted due to the aggregation of carbon particles in the trabecular meshwork.38 After anesthesia, approximately 200 laser burns were delivered ab externo to the pigmented trabecular band at laser settings of 200 μm diameter, 200 mW power and 0.2 seconds duration. Three weeks after the first laser treatment, another trabecular laser photocoagulation was performed without further injection of ink.
Four-μm thick paraffin embedded sections along the vertical meridian of the optic nerve head were collected and a minimum of 6 retinal sections (8 μm apart) per eyeball was used for counting the number of TUNEL positive cells in the RGCL. Only full length and undamaged retinal sections without oblique orientation were used. The procedures described in the ApopTag Peroxidase In Situ Apoptosis Detection Kit (Intergen Co., Purchase, N.Y.) were followed and diaminobenzidine (Sigma, St. Louis, Mo.) was used as a color substrate. Counting was performed by two masked investigators with light microscopy, and averaged.

Geranylgeranylacetone [GGA]: the “HSP72 expression (immunoreactive intensity) in the RGCL” value in assay [1] (control (normal IOP) retinas vs vehicle-alone controls) was “increased expression of HSP72; also recorded: Increased immunoreactivity of HSP72”. For the same substance, in assay [1] (retinas with IOP elevation, 1 week), the “HSP72 expression (immunoreactive intensity) in the RGCL” value is listed as “apparently further increased”. Besides, in assay [2] (1 week of IOP elevation), the “inhibition of cell death” value stood at 57% and the “number of TUNEL positive cells in the RGCL” value was found to be 0.53±0.11 per retinal section. Further, the “effect on number of TUNEL positive cells (in words)” value in assay [2] (elevated IOP retinas, 1 week, quercetin = co-administered with GGA) is listed as “significantly reduced”.
